Legend:
CYP3A = assay: Human CYP fingerprinting, ketoconazole inhibitor; format: in vitro ADME; conditions: 4 μM, human liver microsomes, 30 min, ketoconazole 10 μM
Experimental: (§1) CYP fingerprinting is well established technique and is used as an indication of potential risk of drug-drug interactions in the pharmaceutical sciences. Compounds of the present invention may be assayed by well known methods, essentially as follows: Compounds are incubated at 37° C. at a final concentration of 4 μM with pooled, mixed gender, human liver microsomes and 1 mM NADPH ([…]) (final conc.) for 0 and 30 min. without any CYP inhibitor and with each CYP inhibitor in separate incubations for 30 min. Each inhibitor is specific for an individual cytochrome P450. The specific inhibitors used for CYPs 2C9, 2D6 and 3A were sulfaphenazole, quinidine and ketoconazole, respectively. Ketoconazole (CYP3A) is made up at 25 mM in DMSO and then diluted in buffer to a final concetration of 10 μM. Quinidine (CYP2D6) is made up at 5 mM in 50/50 acetonitrile/water and then diluted in buffer to a final concetration of 10 μM. Sulfaphenazole (CYP2C9) is made up at 100 mM in DMSO and then diluted in buffer to a final concetration of 5 μM. Samples are analyzed by LC-MS in positive or negative electrospray mode using a Waters Acquity Ultra Performance LC coupled to a MicroMass Q-T of-2 mass spectrometer.
(§2) Data are analyzed using MetaboLynx™ version 4.1. With inhibitor present, a reduction in metabolite peak area of less than 30% (relative to the uninhibited control incubation) receives a designation of low risk of Drug Drug Interaction (DDI), a reduction in peak area between 30% and 70% receives a moderate risk of DDI and a reduction of more than 70% receives a high risk of DDI.

Rat oral bioavailability = format: in vivo; conditions: Sprague-Dawley, plasma, fasted male SD rats, IV 0.25 mg/kg, PO 1 mg/kg, based on AUC0-24hr, mean s.d., n=3
Experimental: Methods for accessing bioavailability are well appreciated in the art. One such reference is Medicinal Research Reviews Vol 21 No. 5 382-396 (2001). Bioavailability of compounds may be estimated essentially as follows.
Cohorts of three or four 250-450 gram male Sprague-Dawley rats or approximately 10 kg Beagle dogs (female or male) are used. […] Dogs are administered i.v. by cannulated cephalic vein and blood collections are by jugular vein. Animals are first dosed at 0.25 mg/kg i.v. and blood samples (0.2 mL) are then collected using EDTA as an anticoagulant at 0.0830, 0.25, 0.50, 1, 2, 4, 8, 12, 24, 48, 72, 96, and 120 hours. Next after at least two days and after 18-24 hours fasting, the animals are dosed at 1.0 mg/kg by oral gavage. During the course of a study the total of blood (ml) collected is not to exceed 1% of total body weight in grams. Should larger blood volumes be required, the sampled blood volume is replace with heparinized whole blood from a donor animal. When using a cross-over study design, rats receive a volume of heparinized whole blood following the final sample of each study day approximately equal to that removed during study.
Compound plasma concentrations are measured by LC/MS/MS assays. Data are then analyzed using standard non-compartmental pharmacokinetic analysis. […]

CYP2D6 = biological target: T1, CYP2D6 (Homo sapiens, UniProt P10635); assay: Human CYP fingerprinting, quinidine inhibitor; format: in vitro ADME; conditions: 4 μM, human liver microsomes, 30 min, quinidine 10 μM
T1 construct: pooled, mixed gender, human liver microsomes; from tissue; host or cells: pooled, mixed gender human liver microsomes
T1 sequence (P10635 whole entry): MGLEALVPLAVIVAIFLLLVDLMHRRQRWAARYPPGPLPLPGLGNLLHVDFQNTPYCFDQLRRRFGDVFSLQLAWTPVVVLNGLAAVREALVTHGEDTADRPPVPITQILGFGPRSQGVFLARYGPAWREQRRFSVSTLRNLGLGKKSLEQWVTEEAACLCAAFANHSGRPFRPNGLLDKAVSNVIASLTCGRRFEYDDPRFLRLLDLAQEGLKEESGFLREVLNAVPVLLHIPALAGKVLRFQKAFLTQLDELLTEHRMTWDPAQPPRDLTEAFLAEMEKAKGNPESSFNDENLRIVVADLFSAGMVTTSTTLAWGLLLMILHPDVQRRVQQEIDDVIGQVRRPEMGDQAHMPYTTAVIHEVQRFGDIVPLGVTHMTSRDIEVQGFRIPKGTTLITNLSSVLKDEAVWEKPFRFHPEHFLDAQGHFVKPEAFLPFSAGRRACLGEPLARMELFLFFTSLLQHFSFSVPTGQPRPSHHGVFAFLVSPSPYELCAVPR
Experimental: as §1, §2

In the case of `CC(C)(N[C@@H]1C[C@H](c2cccc(OC(F)(F)F)c2)N(c2ccc(C(F)(F)F)cc2)C1=O)c1ccnc(C(F)(F)F)n1.Cc1ccc(S(=O)(=O)O)cc1` [Example 5, (3R,5R)-3-[1-Methyl-1-(2-trifluoromethyl-pyrimidin-4-yl)-ethylamino]-5-(3-trifluoromethoxy-phenyl)-1-(4-trifluoromethyl-phenyl)-pyrrolidin-2-one tosylate], the “Risk of Drug Drug Interaction (DDI) CYP3A” value (CYP3A) is reported as “low (a reduction in metabolite peak area of less than 30% (relative to the uninhibited control incubation) receives a designation of low risk of Drug Drug Interaction (DDI))”, the bioavailability (Rat oral bioavailability) is reported as 51% and the “Risk of Drug Drug Interaction (DDI) CYP2D6” value (CYP2D6) is reported as “low (a reduction in metabolite peak area of less than 30% (relative to the uninhibited control incubation) receives a designation of low risk of Drug Drug Interaction (DDI))”.

From patent US8420654B2 (Eli Lilly and Company, priority 2008, dated 2013)
